Legend:
[1] = test system: EB–DNA; test: Ethidium bromide displacement assay by fluorescence spectral titration; format: binding, calf; conditions: for LWB Method KLB (Lineweaver-Burk binding constant) / Scatchard Analysis KSA (Scatchard association binding constant) / Scatchard Analysis n (number of binding sites) / n (number of binding sites), DNA binding, Stern–Volmer Method–II / KSV (Stern-Volmer binding constant), DNA binding, Method–I / Kass (association binding constant), DNA binding, Stern–Volmer Method–II: EB–DNA; for LWB Method KLB (Lineweaver-Burk binding constant) / Scatchard Analysis KSA (Scatchard association binding constant) / Scatchard Analysis n (number of binding sites) / n (number of binding sites), DNA binding, Stern–Volmer Method–II / Kq (bimolecular quenching rate constant), DNA binding, Stern–Volmer Method–I: pH 7.4; for KSV (Stern-Volmer binding constant), DNA binding, Method–I / Kass (association binding constant), DNA binding, Stern–Volmer Method–II: pH 7.4, 610 nm; for Kq (bimolecular quenching rate constant), DNA binding, Stern–Volmer Method–I: Kq=KSV/τ0, τ0 = 10^−8 S, 610 nm; for P (ratio of fluorescence quantum efficiency of DNA bound and free complex): intercept of F/F0 vs 1/[DNA]; for ΔGb°, DNA binding, Stern–Volmer Method–II: −RT ln Kass, T = 298 K
Method: The DNA/BSA binding properties were acquired from the emission spectral titration with the supporting of the JASCO FP-6300 spectrofluorometer between the 200 and 800 nm regions. It is additional evidence for the complexes’ manner of DNA binding. While DNA (200 µM) was present or absent, we vigilantly monitored the intensity variations between 610 nm and 510 nm during the initial emission and excitation of EB [27]. Correspondingly, the emission titrations for BSA interaction with different concentrations between 2.5 μM and 25 μM for all samples were conducted in a Tris-HCl buffer solution (pH: 7.4) between the regions of 300 nm and 400 nm.
2.2.5. DNA/BSA binding assay by fluorescence titration
The titration was executed by the JASCO FP-6300 spectrofluorometer in the range of 200 – […]
DNA. To assess the relative DNA binding abilities of the test compound to CT-DNA, ethidium bromide (EB) was utilized as a reference. In the experiment, EB solution (20 µM) in 50 mM Tris –HCl /1 mM NaCl buffer solution (pH=7.2) was incubated with the DNA […]
solution (240 µM) at saturated binding levels and stored in a dark place for two hours. The tested compounds (1 –240 µM) were titrated with pre-incubated EB-bound DNA.
Additionally, from 610 nm to 510 nm, in the absence and presence of DNA (240 µM), the intensity changes for initial emission and excitation of EB were cautiously observed. As a conjugate planar molecule, EB's acquired fluorescence intensity is extremely low, but it […]
concentration of the compounds (0-240 µM), the intensity of the EB-DNA system decreases owing to the quenching effect of DNA by the manner of static quenching. It further attributes the generation of ground state DNA – complex adduct owing the cationic metal complexes interacting with the negatively charged oxygen in phosphodiester of DNA and the contraction of DNA pushes a few EB molecules out of DNA base pairs [ 27].
Fcorr = Fobs × e[(Aex× dex) + (Aem× dem)]/ 2 = Fobs × e(Aex + Aem)/ 2 (S12) Fcorr and F obs are represented as the IFE-corrected emission and observed (uncorrected) emission intensities, respectively. d ex and d em are denoted as the cuvette path lengths in the […]
excitation and emission directions, respectively. Also, the alteration in absorbance (OD) at the excitation and fluorescence wavelengths, respectively, is sometimes referred to as A ex and […]
F = 1+KSV [Q] = 1+ Kq τ0 (S13)
Where [Q] is represented as the sample concentration (quencher), the emission intensities F 0 and F are those in the […] of the quencher, respectively.
F ) = log Kass + nlog [Q] (S14)
KEB[EB] = Kapp[compound] (S15)
∆F = (F 0–F), Equation (16) was utilized to examine the Lineweaver –Burk binding constant (KLB) from the linear regression plot of 1/(F0–F) vs 1/[Q]. […]
γ =(F0–F)/F0, CF is denoted as the concentration of sample alone, the linear regression plot of (γ/CF) vs γ was employed to support equation (17), which was used to determine the values of KSA and n, respectively.
2.2.6. FRET calculation by Förster’s theory
Calculating FRET (Fluorescence Resonance Energy Transfer) is a crucial approach in determining the critical distance (r) between donor (BSA) and acceptor (test compound) molecules, in which the binding affinity between the BSA-complex systems could be evalued according to Förster’s theory. The overlap of the emission spectrum of the donor (BSA) and the absorption spectrum of the acceptor (compound) describes that the acceptor (compound) group may get excited as a result of the excited donor's (BSA) energy being lost to the ground

[2] = test system: Staphylococcus Aureus; test: Agar disc diffusion antibacterial test; conditions: for diameter of clear zone inhibition / Inhibition %: F, (+) Staphylococcus Aureus; for diameter of clear zone inhibition: 20 µL of 100 µM on 6 mm disc, Control (DMSO) = 6 mm; for Inhibition %: (T–C)/T × 100
[3] = test system: Shigella flexneri; test: Agar disc diffusion antibacterial test; conditions: for diameter of clear zone inhibition / Inhibition %: E, (-) Shigella flexneri; for diameter of clear zone inhibition: 20 µL of 100 µM on 6 mm disc, Control (DMSO) = 6 mm; for Inhibition %: (T–C)/T × 100
[4] = test system: Aspergillus niger; test: Agar disc diffusion antifungal test; conditions: for diameter of clear zone inhibition / Inhibition %: H; for diameter of clear zone inhibition: 20 µL of 100 µM on 6 mm disc, Control (DMSO) = 6 mm; for Inhibition %: (T–C)/T × 100

Row | Structure (SMILES) | LWB Method KLB (Lineweaver-Burk binding constant) [1] | Scatchard Analysis KSA (Scatchard association binding constant) [1] | Scatchard Analysis n (number of binding sites) [1] | n (number of binding sites), DNA binding, Stern–Volmer Method–II [1] | KSV (Stern-Volmer binding constant), DNA binding, Method–I [1] | Kass (association binding constant), DNA binding, Stern–Volmer Method–II [1] | Kq (bimolecular quenching rate constant), DNA binding, Stern–Volmer Method–I [1] | P (ratio of fluorescence quantum efficiency of DNA bound and free complex) [1] | ΔGb°, DNA binding, Stern–Volmer Method–II [1] | diameter of clear zone inhibition [2] | Inhibition % [2] | diameter of clear zone inhibition [3] | Inhibition % [3] | diameter of clear zone inhibition [4] | Inhibition % [4] | zone of inhibition at 100 µM ([2]; Staphylococcus aureus, read-out: diameter of clear zone inhibition) | zone of inhibition at 100 µM ([3]; Shigella flexneri, read-out: diameter of clear zone inhibition) | zone of inhibition at 100 µM ([4]; read-out: diameter of clear zone inhibition)
1 | [Cu+2].[O-]c1ccccc1N=Cc1ccc(N2CCOCC2)cc1.[O-]c1ccccc1N=Cc1ccc(N2CCOCC2)cc1.c1cnc2c(c1)ccc1cccnc12 [(1b), [Cu^II(L)2(phen)]] | 21654 M⁻¹ | 33302 M⁻¹ | 1.008 | 1.088 | 40303 M⁻¹ | 31817 M⁻¹ | 4.0303e+12 M⁻¹ s⁻¹ | 0.128 | –26.942 kJM^−1 | 11 mm | 45% | 17 mm | 65% | 10 mm | 40% | – | – | –
2 | [O-]c1ccccc1N=Cc1ccc(N2CCOCC2)cc1.[O-]c1ccccc1N=Cc1ccc(N2CCOCC2)cc1.[Zn+2].c1cnc2c(c1)ccc1cccnc12 [(2b), [Zn^II(L)2(phen)]] | 18218 M⁻¹ | 32941 M⁻¹ | 0.909 | 1.083 | 20669 M⁻¹ | 19688 M⁻¹ | 2.0669e+12 M⁻¹ s⁻¹ | 0.124 | –24.873 kJM^−1 | 11 mm | 45% | 14 mm | 57% | 11 mm | 45% | – | – | –
3 | Oc1ccccc1N=Cc1ccc(N2CCOCC2)cc1 [(HL), 2-(4-morpholinobenzylideneamino)phenol] | 6985 M⁻¹ | 23194 M⁻¹ | 1.096 | 0.976 | 11636 M⁻¹ | 9882 M⁻¹ | 1.1636e+12 M⁻¹ s⁻¹ | 0.090 | –22.790 kJM^−1 | – | 33% | – | 57% | – | 40% | 9 mm | 14 mm | 10 mm

From paper PMC9775322, “An Integrated Analysis of Mechanistic Insights into Biomolecular Interactions and Molecular Dynamics of Bio-Inspired Cu(II) and Zn(II) Complexes towards DNA/BSA/SARS-CoV-2 3CL^pro by Molecular Docking-Based Virtual Screening and FRET Detection” (Biomolecules, 2022)
